From ChEMBL document CHEMBL4819004, “Discovery of selective CDK9 degraders with enhancing antiproliferative activity through PROTAC conversion” (Eur J Med Chem, 2021)
Calls of active or inactive are those of the source. No cut-off for these calls is given here.

How the values were obtained:
MV4-11 [1] = assay: Antiproliferative activity against human MV4-11 cells incubated for 72 hrs by MTT assay; type: functional, cell-based; settings: MV4-11, 72 h
MOLM-13 = assay: Antiproliferative activity against human MOLM-13 cells incubated for 72 hrs by MTT assay; type: functional, cell-based; settings: MOLM-13, 72 h
HCT-116 = assay: Antiproliferative activity against human HCT-116 cells incubated for 72 hrs by MTT assay; type: functional, cell-based; settings: HCT-116, 72 h
A549 = assay: Antiproliferative activity against human A549 cells incubated for 72 hrs by MTT assay; type: functional, cell-based; settings: A549, 72 h
[2] = target: T1, Protein cereblon/Cyclin-dependent kinase 9 (Homo sapiens, UniProt P50750+Q96SW2); assay: Protac activity at CRBN/CDK9 in human MV4-11 cells assessed as induction of CDK9 degradation incubated for 6 hrs by Western blot assay; type: cell-based
[3] = target: T1, Protein cereblon/Cyclin-dependent kinase 9; assay: Protac activity at CRBN/CDK9 in human MV4-11 cells assessed as induction of CDK9 degradation by measuring downregulation of CDK9 expression level at 250 nM by western blot analysis; type: cell-based; settings: time 1-12 hrs, TDE = time-dependent effect
[4] = target: T1, Protein cereblon/Cyclin-dependent kinase 9; assay: Protac activity at CRBN/CDK9 in human MV4-11 cells assessed as induction of CDK9 degradation by measuring downregulation of MCL-1 protein expression level at 250 nM by western blot analysis; type: cell-based; settings: time 1-12 hrs, TDE = time-dependent effect
MV4-11 [5] = assay: Induction of apoptosis in human MV4-11 cells assessed as total apoptotic cells at 30 nM after 6 hrs by AnnexinV-FITC/propidium iodide staining based flow cytometry (reference value: 9.75 %); type: functional
MV4-11 [6] = assay: Induction of apoptosis in human MV4-11 cells assessed as total apoptotic cells at 250 nM after 6 hrs by AnnexinV-FITC/propidium iodide staining based flow cytometry (reference value: 9.75 %); type: functional
MV4-11 [7] = assay: Induction of apoptosis in human MV4-11 cells assessed as total apoptotic cells at 1000 nM after 6 hrs by AnnexinV-FITC/propidium iodide staining based flow cytometry (reference value: 9.75 %); type: functional
MV4-11 [8] = assay: Induction of apoptosis in human MV4-11 cells assessed as viable cells at 250 nM after 6 hrs by AnnexinV-FITC/propidium iodide staining based flow cytometry (reference value: 90.1 %); type: functional; settings: read-out: Activity
MV4-11 [9] = assay: Induction of apoptosis in human MV4-11 cells assessed as viable cells at 1000 nM after 6 hrs by AnnexinV-FITC/propidium iodide staining based flow cytometry (reference value: 90.1 %); type: functional; settings: read-out: Activity
MV4-11 [10] = assay: Induction of apoptosis in human MV4-11 cells assessed as early apoptotic cells at 30 nM after 6 hrs by AnnexinV-FITC/propidium iodide staining based flow cytometry (reference value: 5.36 %); type: functional
MV4-11 [11] = assay: Induction of apoptosis in human MV4-11 cells assessed as early apoptotic cells at 250 nM after 6 hrs by AnnexinV-FITC/propidium iodide staining based flow cytometry (reference value: 5.36 %); type: functional
MV4-11 [12] = assay: Induction of apoptosis in human MV4-11 cells assessed as early apoptotic cells at 500 nM after 6 hrs by AnnexinV-FITC/propidium iodide staining based flow cytometry (reference value: 5.36 %); type: functional
MV4-11 [13] = assay: Induction of apoptosis in human MV4-11 cells assessed as late apoptotic cells at 30 nM after 6 hrs by AnnexinV-FITC/propidium iodide staining based flow cytometry (reference value: 4.29%); type: functional
MV4-11 [14] = assay: Induction of apoptosis in human MV4-11 cells assessed as late apoptotic cells at 500 nM after 6 hrs by AnnexinV-FITC/propidium iodide staining based flow cytometry (reference value: 4.29%); type: functional
MV4-11 [15] = assay: Induction of apoptosis in human MV4-11 cells assessed as late apoptotic cells at 1000 nM after 6 hrs by AnnexinV-FITC/propidium iodide staining based flow cytometry (reference value: 4.29%); type: functional
MV4-11 [16] = assay: Induction of apoptosis in human MV4-11 cells assessed as necrotic cells at 1 nM after 6 hrs by AnnexinV-FITC/propidium iodide staining based flow cytometry (reference value: 0.16 %); type: functional
[17] = target: T1, Protein cereblon/Cyclin-dependent kinase 9; assay: Protac activity at CRBN/CDK9 in human MV4-11 cells assessed as induction of CDK9 degradation by measuring downregulation of CDK9 expression level at 250 nM measured after 1 hr by western blot analysis; type: cell-based
[18] = target: T1, Protein cereblon/Cyclin-dependent kinase 9; assay: Protac activity at CRBN/CDK9 in human MV4-11 cells assessed as induction of CDK9 degradation at 250 nM pretreated for 2 hrs with CDK9 inhibitor, […] followed by incubation with compound for 6 hrs by western blot analysis; type: cell-based
[19] = target: T1, Protein cereblon/Cyclin-dependent kinase 9; assay: Protac activity at CRBN/CDK9 in human MV4-11 cells assessed as induction of CDK9 degradation at 250 nM pretreated for 2 hrs with E3 ligase cereblon ligand, pomalidomide followed by incubation with compound for 6 hrs by western blot analysis; type: cell-based
[20] = target: T1, Protein cereblon/Cyclin-dependent kinase 9; assay: Reversible PROTAC activity at CRBN/CDK9 in human MV4-11 cells assessed as CDK9 degradation at 250 nM incubated for 6 hrs followed by drug wash-out for 12 hrs by western blot analysis; type: cell-based
[21] = target: Protein cereblon/Cyclin-dependent kinase 6 (Homo sapiens) (UniProt Q00534+Q96SW2); assay: PROTAC activity at CRBN/CDK6 in human MV4-11 cells assessed as induction of CDK6 degradation at 31.25 to 500 nM measured after 3 hrs by western blot analysis; type: cell-based; settings: dose 31.25-500 nM
[22] = target: Protein cereblon/Cyclin-dependent kinase 1 (Homo sapiens) (UniProt P06493+Q96SW2); assay: PROTAC activity at CRBN/CDK1 in human MV4-11 cells assessed as induction of CDK1 degradation at 31.25 to 500 nM measured after 3 hrs by western blot analysis; type: cell-based; settings: dose 31.25-500 nM
[23] = target: T1, Protein cereblon/Cyclin-dependent kinase 9; assay: PROTAC activity at CRBN/CDK9 in human MV4-11 cells assessed as reduction in RNA PolII CTD phosphorylation at Ser2 residue measured after 6 hrs by western blot analysis; type: cell-based; settings: dose 31.25-8000 nM
[24] = target: T1, Protein cereblon/Cyclin-dependent kinase 9; assay: PROTAC activity at CRBN/CDK9 in human MV4-11 cells assessed as reduction in RNA PolII CTD phosphorylation at Ser5 residue measured after 6 hrs by western blot analysis; type: cell-based; settings: dose 31.25-8000 nM

COc1cc(F)ccc1-c1ncnc(Nc2cccc(CS(C)(=O)=NC(=O)CCCCCCCC(=O)NCCNc3cccc4c3C(=O)N(C3CCC(=O)NC3=O)C4=O)c2)n1 (configuration not stated)
IC50 (MV4-11 [1]): 0.025 µM | IC50 (MOLM-13): 0.12 µM | IC50 (HCT-116): 3.08 µM | IC50 (A549): 1.22 µM | DC50 [2]: 0.00762 µM | Activity [3]: Tde | Activity [4]: Tde | Activity (MV4-11 [5]): 22.3% | Activity (MV4-11 [6]): 59.4% | Activity (MV4-11 [7]): 80.4% | viability at 0.25 µM (MV4-11 [8]): 40.1% | viability at 1 µM (MV4-11 [9]): 28.2% | Activity (MV4-11 [10]): 7.46% | Activity (MV4-11 [11]): 45.1% | Activity (MV4-11 [12]): 54.2% | Activity (MV4-11 [13]): 14.8% | Activity (MV4-11 [14]): 13.7% | Activity (MV4-11 [15]): 16% | Activity (MV4-11 [16]): 0.77% | Activity [17]: Active | Activity [18]: inactive | Activity [19]: inactive | Activity [20]: Active | Activity [21]: inactive | Activity [22]: inactive | Activity [23]: Dose-Dependent Effect | Activity [24]: Dose-Dependent Effect
